Test results reported in patent EP2270002A1 (Vereniging voor Christelijk Hoger Onderwijs, …, priority 2009, dated 2011).

Biological target: histamine H4 receptor (Homo sapiens, UniProt Q9H3N8)
Test: histamine H4 receptor Ki (Table 1; no method described)
Assay type: binding

histamine H4 receptor, sequence (Q9H3N8 whole entry, species assumed): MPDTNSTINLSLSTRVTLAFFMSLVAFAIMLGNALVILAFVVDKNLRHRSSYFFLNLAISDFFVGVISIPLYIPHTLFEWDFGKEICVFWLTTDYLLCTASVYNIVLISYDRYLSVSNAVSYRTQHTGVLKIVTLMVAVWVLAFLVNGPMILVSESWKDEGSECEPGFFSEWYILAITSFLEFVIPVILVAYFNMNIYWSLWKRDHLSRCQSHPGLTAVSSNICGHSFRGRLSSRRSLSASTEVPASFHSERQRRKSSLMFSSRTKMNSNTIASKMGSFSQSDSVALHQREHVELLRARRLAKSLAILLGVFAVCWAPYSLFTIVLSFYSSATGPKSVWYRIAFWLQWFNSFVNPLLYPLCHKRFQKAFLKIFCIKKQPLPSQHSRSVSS

Compound | Ki
COc1ccc(-c2ccc3c(N4CCN(C)CC4)nc(N)nc3c2)cc1 [Compound 6, 7-(4-methoxyphenyl)-4-(4-methylpiperazin-1-yl)quinazolin-2-amine] | 0.055 µM
Cc1cccc2c(N3CCN(C)CC3)nc(N)nc12 [Compound 10] | 0.091 µM
CN1CCN(c2nc(N)nc3c(-c4ccccc4)cccc23)CC1 [Compound 12, 4-(4-methylpiperazin-1-yl)-8-phenylquinazolin-2-amine] | 0.032 µM
COc1ccc(-c2cccc3c(N4CCN(C)CC4)nc(N)nc23)cc1 [Compound 15, 8-(4-methoxyphenyl)-4-(4-methylpiperazin-1-yl)quinazolin-2-amine] | 0.945 µM
CN1CCN(c2nc(N)nc3cc(-c4ccccc4)ccc23)CC1 [Compound 3, 4-(4-methylpiperazin-1-yl)-7-phenylquinazolin-2-amine] | 0.019 µM
Cc1ccc2c(N3CCN(C)CC3)nc(N)nc2c1 [Compound 1] | 0.024 µM
Cc1cccc(C)c1-c1cccc2c(N3CCN(C)CC3)nc(N)nc12 [Compound 13, 8-(2,6-dimethylphenyl)-4-(4-methylpiperazin-1-yl)quinazolin-2-amine] | 0.221 µM
CN1CCN(c2nc(N)nc3cc(-c4ccc(C#N)cc4)ccc23)CC1 [Compound 5, 4-(2-amino-4-(4-methylpiperazin-1-yl)quinazolin-7-yl)benzonitrile] | 0.029 µM
CN1CCN(c2nc(N)nc3cc(-c4ccco4)ccc23)CC1 [Compound 8, 7-(furan-2-yl)-4-(4-methylpiperazin-1-yl)quinazolin-2-amine] | 0.004 µM
CN1CCN(c2nc(N)nc3cc(-c4ccsc4)ccc23)CC1 [Compound 9, 4-(4-methylpiperazin-1-yl)-7-(thiophen-3-yl)quinazolin-2-amine] | 0.005 µM
CN1CCN(c2nc(N)nc3c(Br)cccc23)CC1 [Compound 11, 8-bromo-4-(4-methylpiperazin-1-yl)quinazolin-2-amine] | 0.111 µM
CN1CCN(c2nc(N)nc3c(-c4ccoc4)cccc23)CC1 [Compound 16, 8-(furan-3-yl)-4-(4-methylpiperazin-1-yl)quinazolin-2-amine] | 0.109 µM
CN1CCN(c2nc(N)nc3cc(Br)ccc23)CC1 [Compound 2, 7-bromo-4-(4-methylpiperazin-1-yl)quinazolin-2-amine] | 0.017 µM
CN1CCN(c2nc(N)nc3cc(-c4ccoc4)ccc23)CC1 [Compound 7, 7-(furan-3-yl)-4-(4-methylpiperazin-1-yl)quinazolin-2-amine] | 0.006 µM
Cc1cccc(C)c1-c1ccc2c(N3CCN(C)CC3)nc(N)nc2c1 [Compound 4, 7-(2,6-dimethylphenyl)-4-(4-methylpiperazin-1-yl)quinazolin-2-amine] | 0.09 µM
CN1CCN(c2nc(N)nc3c(-c4ccc(C#N)cc4)cccc23)CC1 [Compound 14, 4-(2-amino-4-(4-methylpiperazin-1-yl)quinazolin-8-yl)benzonitrile] | 2.33 µM
